Test results as given in patent US7563903B2, “Acylaminothiazole derivatives, their preparation and their therapeutic use” (Sanofi-Aventis, priority 2003, dated 2009).

Biological target: T1, gamma-secretase (Homo sapiens, UniProt P49768, M146L)
T1 construct: expressed in transfected cells; host or cells: CHO-K1 (clone 30-12)
Assay: β-amyloid cellular trial: inhibition of β-amyloid peptide (β-A4) production, ELISA
Assay type: cell-based
Conditions: CHO-K1 line coexpressing the CT100 of APP and PSI M146L clone 30-12, 24-25 h incubation, ELISA of supernatants, read-out: EC50 (50% effective concentration)
Description: For the β-amyloid cellular trial, the CHO-K1 line coexpressing the CT100 of APP and PSI M146L clone 30-12 is used. The line targets the inhibition of gamma-secretase. Presenilin is linked to the gamma-secretase activity (Wolfe M S, Haass C., The Role of presenilins in gamma-secretase activity, J. Biol. Chem., Feb. 23, 2001 276(8), 5413-6) and its coexpression with the amyloid protein or its N-terminal fragment causes an increase in the secretion of the A1-42 peptide (β-A4) thus generating a pharmacological tool which makes it possible to evaluate inhibition by the compounds of formula (I) of the production of the β-A4 peptide. The inoculation of the 96-well culture plates is carried out at the rate of 1×10^5 cells per well in 150 μl of incubation medium. […]
The quantity of bound peptide is detected in an indirect manner in the presence of a competitor corresponding to the truncated peptide, peptide 1-28 coupled to biotin which is then detected with streptavidin coupled to alkaline phosphatase. The substrate, p-Nitrophenyl Phosphate (pNPP FAST p-Nitrophenyl Phosphate, Sigma N2770), gives a yellow soluble reaction product which can be read at 405 nm. […] After incubating for 30 minutes at room temperature, the reaction is stopped by the addition of 100 μl per well of 0.1M EDTA and the reading is carried out at 405 nm.

- EC50: 295 nM
SMILES: CCC[C@H](NC(=O)[C@@H](O)C(C)(C)C)C(=O)Nc1ncc(-c2ccccc2COc2ccc(Cl)c(Cl)c2)s1 [compound 50, (2S)—N-(5-{2-[(3,4-dichlorophenoxy)methyl]phenyl}-1,3-thiazol-2-yl)-2-{[(2S)-2-hydroxy-3,3-dimethylbutanoyl]amino}pentanamide]
